Values quoted from earlier work in patent US20050107279A1, “Emulsion composition” (Unilever Home & Personal Care USA, Division of Conopco, Inc., priority 2003, published 2005).

Legend:
[1] = AOT; range as per Sabatini et al. 1996
[2] = hydrophobic liquid
[3] = hydrophobic liquid; remark: listed apart in the source

Compound	HLB [1]	Log P [2]	solubility in water [3]
CCCCC(CC)COC(=O)CC(C(=O)OCC(CC)CCCC)S(=O)(=O)[O-].[Na+] (stereo not drawn) [AOT, Aerosol OT]	10-14.9)	–	–
CCCCCCCC [Octane]	–	(Log P = 4.7)	Solubility = 7 × 10^−5%
